The test system of one data set is human cancer cell lines. The data set can be described thus: XTT cytotoxicity assay, all human cancer cell lines tested. It counts as cell-based. Here is the method:
(§1) Cytotoxicity can be easily measured using XTT assays, which provide an indication of mitochondrial activity. The XTT assay is a non-radioactive alternative for the [^51Cr] release cytotoxicity assay. XTT is a tetrazolium salt that is reduced to a formazan dye only by metabolically active, viable cells. The reduction of XTT is measured spectrophotometrically as OD490-OD650. Thus, cells that are actively metabolizing will form reaction product when subjected to XTT measurement.
(§2) For this experiment, cells were cultured under standard culture conditions. MCF7 human breast cancer cells were cultured in DMEM containing 5 mM glucose medium with 10% fetal calf serum, 0.01 mg/ml insulin and 1% penicillin/streptomycin. To measure the cytotoxicity of specific compounds against cancer cells, 9×10^3 MCF7 cells were plated per well in 96-well plates. Following overnight culture, the compounds, dissolved in DMSO, were added to the wells in 1 μl volume at specified concentrations. Vehicle controls were run for each experiment. Each condition was run in triplicate. After 24 to 72 h of incubation, cells were incubated for 4 hours with the XTT reagent as per manufacturer's instructions (Cell Proliferation Kit II (XTT) Roche Diagnostics, New Jersey). Plates were read at OD490 on a PerkinElmer Victor 1420. Three wells containing the XTT reagent without cells served as the plate blank. […]

Another data set has as its system MCF7 cells. Put plainly: cellular ATP level, bioluminescence. It counts as cell-based, human. Here is the method: As mitochondria serve as the energy production center of the cell, their main purpose is the generation of ATP. As a functional readout, cellular ATP levels may be measured to obtain an indication of mitochondrial status upon compound treatment. MCF-7 cells were cultured the standard medium, and ATP levels were measured by chemiluminescence.
MCF7 human breast cancer cells cultured in DMEM containing 5 mM glucose medium with 10% fetal calf serum, 0.01 mg/ml insulin and 1% penicillin/streptomycin. Cells were plated in 24-well cell culture plates at 2×10^5 per well overnight. After drug treatment, cells were lysed using 500 μl of TE buffer (4 mM Tris, 0.25 mM EDTA, pH 7.4) and boiled at 95° C. for 7 min. ATP levels were measured within the linear range using the ATP BioLuminescence Kit CLSII (Roche) by following the manufacture's recommendation. Luminescence was detected using PerkinElmer Victor 1420.
Determination of the effect on cellular ATP level was carried out using the procedure described above. Cells were plated in 24 well cell culture plates at 2×10^5 per well overnight. Cells were cultured in 1 mM or 5 mM glucose at either 1% or 21% (ambient) oxygen levels. […] ATP levels were measured within the linear range using the ATP Bioluminescence Kit CLSII (Roche) by following the manufacture's recommendation. Luminescence was detected using PerkinElmer Victor 1420.

Data set [1] deals with MCF7 human breast cancer cells. The data set can be described thus: XTT cytotoxicity assay, MCF7. Format: cell-based. Here is the method: as §1
For this experiment, cells were cultured under standard culture conditions. MCF7 human breast cancer cells were cultured in DMEM containing 5 mM glucose medium with 10% fetal calf serum, 0.01 mg/ml insulin and 1% penicillin/streptomycin. To measure the cytotoxicity of specific compounds against cancer cells, 9×10^3 MCF7 cells were plated per well in 96-well plates. Following overnight culture, the compounds, dissolved in DMSO, were added to the wells in 1 μl volume at specified concentrations. Vehicle controls were run for each experiment. Each condition was run in triplicate. After 24 to 72 h of incubation, cells were incubated for 4 hours with the XTT reagent as per manufacturer's instructions (Cell Proliferation Kit II (XTT) Roche Diagnostics, New Jersey). Plates were read at OD490 on a PerkinElmer Victor 1420. Three wells containing the XTT reagent without cells served as the plate blank. XTT data were reported as OD490.
MCF7 human breast cancer cells were cultured in DMEM containing 1 mM or 5 mM glucose in the medium with 10% fetal calf serum, 0.01 mg/ml insulin and 1% penicillin/streptomycin. The cells were grown in two oxygen conditions, normoxia (21% 02) or hypoxia (1% 02). To measure the cytotoxicity of specific compounds against cancer cells, 9×10^3 MCF7 cells were plated per well in 96-well plates. Following overnight culture, the compounds, dissolved in DMSO, were added to the wells in 1 μl volume at specified concentrations. After 24 to 72 h of incubation, cells were incubated for 4 h with the XTT reagent as per manufacturer's instructions (Cell Proliferation Kit II (XTT) Roche Diagnostics, New Jersey). Plates were read at OD490 on a PerkinElmer Victor 1420. Three wells containing the XTT reagent without cells served as the plate blank. XTT data were reported as OD490Vehicle controls were run for each experiment. Each condition was run in triplicate.
In general terms: Tetrazolium dyes change colour on reduction, which living cells bring about.

In data set [2] the test system is Human breast cancer cell lines. The data set can be described thus: XTT cytotoxicity assay, human breast cancer cell lines. Format: cell-based. Particulars: 5 human breast cancer cell lines, read-out: LC50 (the source's name). Here is the method:
as §1
as §2, with “After 24 to 72 h of incubation, cells were incubated for 4 hours with the XTT reagent as per manufacturer's instructions (Cell Proliferation Kit II (XTT) Roche Diagnostics, New Jersey).” left out, “1420.” for “1420. Three wells containing the XTT reagent without cells served as the plate blank.”
(§3) Using the XTT assay, LC50 values for C31 were determined for numerous human cancer cell lines and human hepatocytes, as shown in the following table: […]

In data set [3] the test system is Human ovarian cancer cell lines. Put plainly: XTT cytotoxicity assay, human ovarian cancer cell lines. Format: cell-based. Particulars: 2 human ovarian cancer cell lines, read-out: LC50 (the source's name). Here is the method:
as §1
as §2, with “After 24 to 72 h of incubation, cells were incubated for 4 hours with the XTT reagent as per manufacturer's instructions (Cell Proliferation Kit II (XTT) Roche Diagnostics, New Jersey).” left out, “1420.” for “1420. Three wells containing the XTT reagent without cells served as the plate blank.”
as §3

≈ marks a conversion by molar mass, not a printed value. Where “and” joins values, the source holds several entries; their conditions need not be identical. Equal values may be shown once.

Experimental findings from US20140243401A1, “METHODS OF SCREENING COMPOUNDS THAT ARE CYTOTOXIC TO TUMOR CELLS AND METHODS OF TREATING TUMOR CELLS USING SUCH COMPOUND” (The Johns Hopkins University, priority 2010, published 2014) are described below.

With `CCCCCCCCC1(C)SC(=O)C=C1OCC(=O)Nc1ccc(Cl)cc1` (centres unmarked) [Compound C31], the CC50 is 3.3 µg/mL to 16.7 µg/mL and 8.25 µM to 41.8 µM in the data set with human cancer cell lines (Homo sapiens, XTT, range over all cancer cell lines, read-out: LC50, human cancer cell lines); 3.3 to 16.7 µg/mL (≈ 8.05 to 40.7 µM) in data set [2]; 6 to 8.1 µg/mL (≈ 14.6 to 19.8 µM) in data set [3]. Moreover, the “potential therapeutic index in vitro” value in the data set on human cancer cell lines (hepatocyte LC50 vs cancer cell line LC50) fell in the range of 34 to 170 fold. Further, the ATP levels result is given as “ATP levels declined in all of the cells” with MCF7 cells (MCF7, 1 mM or 5 mM glucose, 1% or 21% oxygen, FIG. 10) and “rapidly decreased” with MCF7 cells (MCF7, standard medium 5 mM glucose, FIG. 5). In data set [1] (MCF7, 1 mM or 5 mM glucose, 1% or 21% O2, FIG. 9), the “cytotoxicity (XTT)” value was “increases if the cells are hypoglycemic and even more if the cells are hypoxic”. Also, in data set [1] (MCF7, standard culture, FIG. 4 A, B), the “cytotoxicity / cell viability (XTT)” value is on record as “concentration-dependent cytotoxicity”.
